Measured values from PubChem BioAssay AID1648 (Sanford-Burnham Center for Chemical Genomics, 2009).
The source made the active and inactive calls. The rule behind the calls is not given here.

Biological target: Serine/threonine-protein kinase mTOR (Homo sapiens) (UniProt P42345)
Assay: binders of mTOR FRB domain, biophysical, NMR (AID 1648)
Details: NMR binding to FRB domain, chemical shift

Sequence of Serine/threonine-protein kinase mTOR (Homo sapiens) (P42345 2015-2114): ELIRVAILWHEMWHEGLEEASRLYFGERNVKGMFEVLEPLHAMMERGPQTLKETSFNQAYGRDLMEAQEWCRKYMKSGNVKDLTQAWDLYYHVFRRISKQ

Structure (SMILES) | Kd
CC(C)/C(O)=C1/C(=O)O[C@@H](c2ccoc2)[C@]2(C)C(O)[C@@H](O)[C@@]34OC5(C)OC67CC(C)(C(O)[C@]6(O)[C@@H](O)[C@]3(O5)C12)[C@H](CC(=O)O)[C@]74C (stereo not given in full) | > 4 mM (inactive)
O=C1CCC(C(=O)NCc2ccc(Cl)cc2)N1 (stereo not given) | > 4 mM (inactive)
Cc1cccc(NC(=O)c2ccc(=O)[nH]n2)c1 | > 4 mM (inactive)
O=P(O)(Cc1ccccc1)c1ccccc1 | > 4 mM (inactive)
C=C(C)[C@H]1Cc2c(ccc3c2O[C@@H]2COc4cc(OC)c(OC)cc4[C@@H]2C3=O)O1 | > 4 mM (inactive)
NC(=O)c1ccccc1N=Cc1ccco1 | > 4 mM (inactive)
Cc1cc(C(F)(F)F)nn1CC(N)=O | > 4 mM (inactive)
CN(C)C(=O)N1CCN(C(=O)c2ccco2)CC1 | > 4 mM (inactive)
c1cncc(Nc2nc(-c3ccncc3)cs2)c1 | > 4 mM (inactive)
CCN=Cc1c(O)n(-c2ccccc2C)c(=O)[nH]c1=O | > 4 mM (inactive)
COc1cc(OC)c2c(=O)c(-c3ccc4c(c3)OCO4)coc2c1 | > 4 mM (inactive)
OCc1nccn1Cc1ccccc1 | > 4 mM (inactive)
O=C(O)C1C(=O)NCC1c1ccccc1 (stereo not given) | > 4 mM (inactive)
Nc1ccc(NC(=O)c2ccco2)c(Cl)c1 | > 4 mM (inactive)
CC(N)C(=O)c1ccco1 (stereo not given) | > 4 mM (inactive)
Cc1ccc(NC(=O)CN2C(=O)CSC2=O)cc1 | > 4 mM (inactive)
Cc1noc(C)c1C(=O)N1CCC2(CC1)OCCO2 | > 4 mM (inactive)
Cc1ccccc1NC(=O)CC1SC(N)=NC1=O (stereo not given) | > 4 mM (inactive)
Nc1cccc2nsnc12 | > 4 mM (inactive)
Cc1occc1C(=O)Nc1ccc2c(c1)CCC2 | > 4 mM (inactive)
Cc1noc(C)c1C(=O)NCc1ccco1 | > 4 mM (inactive)
O=C(NC(=S)NCc1cccnc1)c1ccco1 | > 4 mM (inactive)
c1cncc(C2CCCCN2)c1 (stereo not given) | > 4 mM (inactive)

Structure (SMILES) | Kd
Nc1cccc(C(=O)Nc2ccc(N)cc2Cl)c1 | > 4 mM (inactive)
CC(=O)c1ccc(N2C(=O)C(C(C)C)NC2=S)cc1 (stereo not given) | > 4 mM (inactive)
CC(CCC(=O)O)[C@H]1CCC2C3C(C[C@H](O)[C@@]21C)[C@@]1(C)CC[C@@H](O)C[C@H]1C[C@H]3O (stereo not given in full) | > 4 mM (inactive)
c1ccc(SCc2nc(-c3cccnc3)no2)cc1 | > 4 mM (inactive)
CS(=O)(=O)N1CCN(c2ncccn2)CC1 | > 4 mM (inactive)
CC(=O)Oc1c(-c2ccccc2)oc2c(CC=C(C)C)c3c(c(OC(C)=O)c2c1=O)C=CC(C)(C)O3 | > 4 mM (inactive)
COc1ccc(/C=C2\SC(N)=NC2=O)cc1 | > 4 mM (inactive)
O=CN1CCN(C(=O)c2ccco2)CC1 | > 4 mM (inactive)
O=C(O)c1ccc(-c2cccs2)s1 | > 4 mM (inactive)
COc1ccc(-c2coc3cc(OC(C)=O)cc(OC(C)=O)c3c2=O)cc1 | > 4 mM (inactive)
CC[C@@]1(O)C[C@H](O)c2c(cc3c(c2O)C(=O)c2c(O)ccc(O)c2C3=O)[C@H]1C(=O)OC | > 4 mM (inactive)
NCCc1nc2ccccc2[nH]1 | > 4 mM (inactive)
Nc1ccc(OC(F)(F)F)cc1 | > 4 mM (inactive)
Cn1cnc2ccc([N+](=O)[O-])cc2c1=O | > 4 mM (inactive)
C=CCc1cc(C(=O)N2CCCCC2)ccc1O | > 4 mM (inactive)
O=C(NCc1cccc(Cl)c1)c1cnccn1 | > 4 mM (inactive)
CC(=O)N1CN(C(C)=O)CN(C(C)=O)C1 | > 4 mM (inactive)
O=C1NC(=O)C(C2SC(=O)NC2=O)S1 (stereo not given) | > 4 mM (inactive)
Cc1oc(-c2ccccc2)cc1CO | > 4 mM (inactive)
NC1CCN(Cc2ccccc2)CC1 | > 4 mM (inactive)
Cc1nc2ccccc2c(=O)n1/N=C/c1ccncc1 | > 4 mM (inactive)
Cn1cnnc1SCCCNC(=O)Nc1ncccn1 | > 4 mM (inactive)
